Results reported in patent US20230391772A1, “METHODS AND COMPOSITIONS FOR TARGETED PROTEIN DEGRADATION” (Ranok Therapeutics (Hangzhou) Co. Ltd., priority 2020, published 2023).

Key:
[1] = biological target: KRAS(G12C) (Homo sapiens, UniProt P01116, G12C); assay: KRAS(G12C)/SOS1 homogeneous time-resolved fluorescence (HTRF) assay; set-up: purchased Cisbio 63ADK000CB16PEG; settings: absence of GTP, 4° C. for 3 hr, read-out: KRAS (G12C) binding
Description: KRAS(G12C)/SOS1 Homogeneous Time-Resolved Fluorescence (HTRF) Assay
Binding of test compounds to KRAS(G12C) protein, which in turn blocks KRAS(G12C) interaction with the SOS1 protein, was measured in the absences of GTP by homogeneous time-resolved fluorescence (HTRF) using the KRAS-G12C/SOS1 Binding Assay Kit (Cisbio, #63ADK000CB16PEG), following the manufacturer's instructions, except as noted. 3-fold serial dilutions of each test compound were prepared ranging from […] to 1.02 nM. The test compound was mixed and incubated with reaction components, incubated in a sealed plate at 4° C. for 3 hr and fluorescence was measured using a PerkinElmer Envision plate reader.

[2] = tested on: MIA PaCa-2 human pancreatic carcinoma; assay: MIA PaCa-2 CCK-8 proliferation assay; assay type: cell-based; settings: Homo sapiens, MIA PaCa-2, 72 h, MIA PaCa-2 cells
Description: The following cancer cell lines were employed: BT-474 human breast carcinoma (ATCC, #HTB-20); MIA PaCa-2 human pancreatic carcinoma [2 copies KRAS(G12C)](ATCC, #CRL-1420); NCI-H23 human non-small cell lung cancer [1 copy KRAS(G12C)](ATCC, #CRL-5800); NCI-H358 human non-small cell lung cancer [1 copy KRAS(G12C)](ATCC, #CRL-5807); LU65A human lung carcinoma (Pharmaron, Beijing, China). Cell lines were cultured essentially according to ATCC and Pharmaron recommendations.
Cancer Cell Line Proliferation (CCK-8) Assays
3-fold serial dilutions of each test compound were prepared ranging from 20 μM to 1.02 nM.
% Inhibition=100−(D−B)/(S−B)*100%. • S: Absorbance of cells treated with DMSO • D: Absorbance of compound-treated cells • B: Absorbance of medium with DMSO without cells

[3] = biological target: T1, HSP90a protein (Homo sapiens, UniProt P07900); assay: HSP90α-binding fluorescent polarization (FP) assay, BODIPY-labeled RNK04010 probe; settings: FP competition with RNK04010 (BODIPY-labeled), 5 nM, 300 min at 25° C.
T1 construct: purchased BPS Bioscience 50298
Description: HSP90α-Binding Fluorescent Polarization (FP) Assay
Binding of test compounds to HSP90a protein was measured by fluorescent polarization (FP) using the HSP90a (N-terminal) Assay Kit (BPS Bioscience, #50298), following the manufacturer's instructions, except as noted. Fluorescently labeled HSP90-binding compounds, either the provided FITC-geldanamycin (5 nM final concentration) or RNK04010, a triazolone-based HSP90 binding small molecule labeled with BODIPY through a piperizine-phenyl linker (5 nM final concentration) were employed. A 2.5-fold serial dilution of each test compound ranging from 20 μM to 5.2 nM was assayed for binding to HSP90a. After the final step of adding HSP90a protein to each assay well, plates were mixed by brief shaking, incubated at 25° C. for 120 min for FITC-geldanamycin or 300 min for RNK04010, and fluorescence was measured using a PerkinElmer EnVision Plate Reader.

Sequence of KRAS(G12C) (P01116 1-188 isoform P01116-2 G12C): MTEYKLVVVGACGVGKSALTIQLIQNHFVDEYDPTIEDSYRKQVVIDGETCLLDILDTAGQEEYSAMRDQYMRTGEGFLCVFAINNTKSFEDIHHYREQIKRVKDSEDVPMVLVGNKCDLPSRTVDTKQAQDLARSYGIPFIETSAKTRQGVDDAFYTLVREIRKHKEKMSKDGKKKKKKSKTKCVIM

`C=CC(=O)N1CCN(c2nc(OC[C@@H]3C[C@@H](OCC(=O)NCc4ccc(-n5c(O)nnc5-c5cc(C(C)C)c(O)cc5O)cc4)CN3C)nc3c2CCN(c2cccc4cccc(Cl)c24)C3)C[C@@H]1CC#N` [Compound 302, 2-(((3R,5S)-5-(((4-((S)-4-acryloyl-3-(cyanomethyl)piperazin-1-yl)-7-(8-chloronaphthalen-1-yl)-5,6,7,8-tetrahydropyrido[3,4-d]pyrimidin-2-yl)oxy)methyl)-1-methylpyrrolidin-3-yl)oxy)-N-(4-(3-(2,4-dihydroxy-5-isopropylphenyl)-5-hydroxy-4H-1,2,4-triazol-4-yl)benzyl)acetamide] was tested, and the IC50 [1] was 0.1 to 1 µM, the EC50 [2] was 0.1 to 1 µM and the IC50 [3] was less than 0.1 µM.

`C=CC(=O)N1CCN(c2nc(OC[C@H]3CC[C@@H](C(=O)N4CCN(C(=O)C5CCN(Cc6ccc(-n7c(O)nnc7-c7cc(C(C)C)c(O)cc7O)cc6)CC5)CC4)N3C)nc3c2CCN(c2cccc4cccc(Cl)c24)C3)C[C@@H]1CC#N` [Compound 342, 2-[(2S)-4-[7-(8-chloronaphthalen-1-yl)-2-{[(2R,5S)-5-{4-[1-({4-[3-(2,4-dihydroxy-5-isopropylphenyl)-5-hydroxy-1,2,4-triazol-4-yl]phenyl}methyl)piperidine-4-carbonyl]piperazine-1-carbonyl}-1-methylpyrrolidin-2-yl]methoxy}-5H,6H,8H-pyri-do[3,4-d]pyrimidin-4-yl]-1-(prop-2-enoyl)piperazin-2-yl]acetonitrile] showed an IC50 [1] of less than 0.1 µM, an EC50 [2] of 0.1 to 1 µM and an IC50 [3] of less than 0.1 µM.

Work on `C=CC(=O)N1CCN(c2nc(OCCN3CCN(C(=O)c4ccc(-n5c(O)nnc5-c5cc(C(C)C)c(O)cc5O)cc4)CC3)nc3c2CCN(c2cccc4cccc(Cl)c24)C3)C[C@@H]1CC#N` [Compound 195, (S)-2-(1-acryloyl-4-(7-(8-chloronaphthalen-1-yl)-2-(2-(4-(4-(3-(2,4-dihydroxy-5-isopropylphenyl)-5-hydroxy-4H-1,2,4-triazol-4-yl)benzoyl)piperazin-1-yl)ethoxy)-5,6,7,8-tetrahydropyrido[3,4-d]pyrimidin-4-yl)piperazin-2-yl)acetonitrile, trifluoroacetic acid] yielded an IC50 [1] greater than 1 µM, an EC50 [2] greater than 1 µM and an IC50 [3] of less than 0.1 µM.

`C=CC(=O)N1CCN(c2nc(OCCN3CCC4(CC3)CCN(Cc3cc(C(C)C)c(O)cc3O)CC4)nc3c2CCN(c2cccc4cccc(Cl)c24)C3)C[C@@H]1CC#N` [Compound 217, (S)-2-(1-acryloyl-4-(7-(8-chloronaphthalen-1-yl)-2-(2-(9-(2,4-dihydroxy-5-isopropylbenzyl)-3,9-diazaspiro[5.5]undecan-3-yl)ethoxy)-5,6,7,8-tetrahydropyrido[3,4-d]pyrimidin-4-yl)piperazin-2-yl)acetonitrile] showed an IC50 [1] of less than 0.1 µM, an EC50 [2] greater than 1 µM and an IC50 [3] of 0.1 to 1 µM.

`C=CC(=O)N1CCN(c2nc(OC[C@@H]3CN(C(=O)C4CCN(Cc5ccc(-n6c(C(N)=O)nnc6-c6cc(C(C)C)c(O)cc6O)cc5)CC4)CCN3C)nc3c2CCN(c2cccc4cccc(Cl)c24)C3)C[C@@H]1CC#N` [Compound 197, 4-(4-((4-((S)-3-(((4-((S)-4-acryloyl-3-(cyanomethyl)piperazin-1-yl)-7-(8-chloronaphthalen-1-yl)-5,6,7,8-tetrahydropyrido[3,4-d]pyrimidin-2-yl)oxy)methyl)-4-methylpiperazine-1-carbonyl)piperidin-1-yl)methyl)phenyl)-5-(2,4-dihydroxy-5-isopropylphenyl)-4H-1,2,4-triazole-3-carboxamide, trifluoroacetic acid] showed an IC50 [1] greater than 1 µM, an EC50 [2] greater than 1 µM and an IC50 [3] of less than 0.1 µM.

`C=CC(=O)N1CCN(c2nc(OCC3CN(C(=O)c4ccc(-n5c(O)nnc5-c5cc(C(C)C)c(O)cc5O)cc4)C3)nc3c2CCN(c2cccc4cccc(Cl)c24)C3)C[C@@H]1CC#N` [Compound 221, (S)-2-(1-acryloyl-4-(7-(8-chloronaphthalen-1-yl)-2-((1-(4-(3-(2,4-dihydroxy-5-isopropylphenyl)-5-hydroxy-4H-1,2,4-triazol-4-yl)benzoyl)azetidin-3-yl)methoxy)-5,6,7,8-tetrahydropyrido[3,4-d]pyrimidin-4-yl)piperazin-2-yl)acetonitrile] gave an IC50 [1] greater than 1 µM, an EC50 [2] greater than 1 µM and an IC50 [3] of less than 0.1 µM.

`C=CC(=O)N1CCN(c2nc(OCCN3CCC(C(=O)N4CCC(Cc5ccc(-n6c(O)nnc6-c6cc(C(C)C)c(O)cc6O)cc5)CC4)CC3)nc3c2CCN(c2cccc4cccc(Cl)c24)C3)C[C@@H]1CC#N` [Compound 211, (S)-2-(1-acryloyl-4-(7-(8-chloronaphthalen-1-yl)-2-(2-(4-(4-(4-(3-(2,4-dihydroxy-5-isopropylphenyl)-5-hydroxy-4H-1,2,4-triazol-4-yl)benzyl)piperidine-1-carbonyl)piperidin-1-yl)ethoxy)-5,6,7,8-tetrahydropyrido[3,4-d]pyrimidin-4-yl)piperazin-2-yl)acetonitrile] showed an IC50 [1] of 0.1 to 1 µM, an EC50 [2] greater than 1 µM and an IC50 [3] of less than 0.1 µM.

Molecule `C=CC(=O)N1CCN(c2nc(OC[C@@H]3C[C@H](N4CCC5(CCN(C(=O)C6CCN(Cc7ccc(-n8c(O)nnc8-c8cc(C(C)C)c(O)cc8O)cc7)CC6)CC5)CC4)CN3C)nc3c2CCN(c2cccc4cccc(Cl)c24)C3)C[C@@H]1CC#N` [Compound 318, 2-[(2S)-4-[7-(8-chloronaphthalen-1-yl)-2-{[(2S,4S)-4-{9-[1-({4-[3-(2,4-dihydroxy-5-isopropylphenyl)-5-hydroxy-1,2,4-triazol-4-yl]phenyl}methyl)piperidine-4-carbonyl]-3,9-diazaspiro[5.5]undecan-3-yl}-1-methylpyrrolidin-2-yl]methoxy}-5H,6H,8H-pyrido[3,4-d]pyrimidin-4-yl]-1-(prop-2-enoyl)piperazin-2-yl]acetonitrile] has an IC50 [1] of less than 0.1 µM, an EC50 [2] of 0.1 to 1 µM and an IC50 [3] of less than 0.1 µM.

Work on `C=CC(=O)N1CCN(c2nc(OC[C@@H]3C[C@H](NC(=O)C4CCN(C(=O)C5CCN(Cc6ccc(-n7c(C(=O)NCC(F)(F)F)nnc7-c7cc(C(C)C)c(O)cc7O)cc6)CC5)CC4)CN3C)nc3c2CCN(c2cccc4cccc(Cl)c24)C3)C[C@@H]1CC#N` [Compound 307, N-[(3S,5S)-5-({[7-(8-chloronaphthalen-1-yl)-4-[(3S)-3-(cyanomethyl)-4-(prop-2-enoyl)piperazin-1-yl]-5H,6H,8H-pyrido[3,4-d]pyrimidin-2-yl]oxy}methyl)-1-methylpyrrolidin-3-yl]-1-[1-({4-[3-(2,4-dihydroxy-5-isopropylphenyl)-5-[(2,2,2-tri-fluoroethyl)carbamoyl]-1,2,4-triazol-4-yl]phenyl}methyl)piperidine-4-carbonyl]piperidine-4-carboxamide] yielded an IC50 [1] of less than 0.1 µM, an EC50 [2] of less than 0.1 µM and an IC50 [3] of less than 0.1 µM.

In the case of `C=CC(=O)N1CCN(c2nc(OC[C@@H]3C[C@H](C(=O)N4CCN(Cc5ccc(-n6c(C(=O)NCC(F)(F)F)nnc6-c6cc(C(C)C)c(O)cc6O)cc5)CC4)CN3C)nc3c2CCN(c2cccc4cccc(Cl)c24)C3)C[C@@H]1CC#N` [Compound 333, 4-[4-({4-[(3S,5S)-5-({[7-(8-chloronaphthalen-1-yl)-4-[(3S)-3-(cyanomethyl)-4-(prop-2-enoyl)piperazin-1-yl]-5H,6H,8H-pyrido[3,4-d]pyrimidin-2-yl]oxy}methyl)-1-methylpyrrolidine-3-carbonyl]piperazin-1-yl}methyl)phenyl]-5-(2,4-dihydroxy-5-isopropylphenyl)-N-(2,2,2-trifluoroethyl)-1,2,4-triazole-3-carboxamide], the IC50 [1] is reported as 0.1 to 1 µM, the EC50 [2] is reported as less than 0.1 µM and the IC50 [3] is reported as less than 0.1 µM.

`C=CC(=O)N1CCN(c2nc(OCCN3CCC(C(=O)N4CCC(Cc5ccc(-n6c(C(=O)NCC(F)(F)F)nnc6-c6cc(C(C)C)c(O)cc6O)cc5)CC4)CC3)nc3c2CCN(c2cccc4cccc(Cl)c24)C3)C[C@@H]1CC#N` [Compound 212, (S)-4-(4-((1-(1-(2-((4-(4-acryloyl-3-(cyanomethyl)piperazin-1-yl)-7-(8-chloronaphthalen-1-yl)-5,6,7,8-tetrahydropyrido[3,4-d]pyrimidin-2-yl)oxy)ethyl)piperidine-4-carbonyl)piperidin-4-yl)methyl)phenyl)-5-(2,4-dihydroxy-5-isopropylphenyl)-N-(2,2,2-trifluoroethyl)-4H-1,2,4-triazole-3-carboxamide] was tested, and the IC50 [1] was 0.1 to 1 µM, the EC50 [2] was 0.1 to 1 µM and the IC50 [3] was less than 0.1 µM.
